Measured values: patent publication US20050112573A1, “Method of detecting toxic substance” (priority 2001, published 2005)

System: yeast genes (level of expressed mRNA)
Assay: DNA chip analysis of expressed mRNA of yeast genes after 2 h culture with a toxic chemical substance
Assay type: cell-based, Saccharomyces cerevisiae S288C
In short: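 Values are treated-to-control fluorescence ratios from a whole-yeast-genome DNA chip (65° C, over 12 h hybridization) using Cy3/Cy5-labelled cDNA from mRNA. Log-phase S288C cells in YPD at 25° C were exposed 2 h to a toxicant at sublethal, growth-inhibiting concentration.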

O=[N+]([O-])c1cc[n+]([O-])c2ccccc12 [(5), 4-nitroquinolin-N-oxide]
The level of expressed mRNA in the presence of chemical substance/The level of expressed mRNA in the absence of chemical substance (yeast gene YAR010C): 1.0
The level of expressed mRNA in the presence of chemical substance/The level of expressed mRNA in the absence of chemical substance (yeast gene YBL005W-A): 1.3
The level of expressed mRNA in the presence of chemical substance/The level of expressed mRNA in the absence of chemical substance (yeast gene YBL041W): 1.6
The level of expressed mRNA in the presence of chemical substance/The level of expressed mRNA in the absence of chemical substance (yeast gene YBL043W): 1.1
The level of expressed mRNA in the presence of chemical substance/The level of expressed mRNA in the absence of chemical substance (yeast gene YBL078C): 0.7
The level of expressed mRNA in the presence of chemical substance/The level of expressed mRNA in the absence of chemical substance (yeast gene YBR214W): 1.1
The level of expressed mRNA in the presence of chemical substance/The level of expressed mRNA in the absence of chemical substance (yeast gene YCL020W): 0.5
The level of expressed mRNA in the presence of chemical substance/The level of expressed mRNA in the absence of chemical substance (yeast gene YCL027W): 1.2
The level of expressed mRNA in the presence of chemical substance/The level of expressed mRNA in the absence of chemical substance (yeast gene YCR004C): 1.2
The level of expressed mRNA in the presence of chemical substance/The level of expressed mRNA in the absence of chemical substance (yeast gene YCR071C): 1.2
The level of expressed mRNA in the presence of chemical substance/The level of expressed mRNA in the absence of chemical substance (yeast gene YCR088W): 1.1
The level of expressed mRNA in the presence of chemical substance/The level of expressed mRNA in the absence of chemical substance (yeast gene YDL008W): 1.8
The level of expressed mRNA in the presence of chemical substance/The level of expressed mRNA in the absence of chemical substance (yeast gene YDL238C): 0.9
The level of expressed mRNA in the presence of chemical substance/The level of expressed mRNA in the absence of chemical substance (yeast gene YDR055W): 1.7
The level of expressed mRNA in the presence of chemical substance/The level of expressed mRNA in the absence of chemical substance (yeast gene YDR084C): 1.2
The level of expressed mRNA in the presence of chemical substance/The level of expressed mRNA in the absence of chemical substance (yeast gene YDR085C): 0.9
The level of expressed mRNA in the presence of chemical substance/The level of expressed mRNA in the absence of chemical substance (yeast gene YDR104C): 1.3
The level of expressed mRNA in the presence of chemical substance/The level of expressed mRNA in the absence of chemical substance (yeast gene YDR115W): 1.4
The level of expressed mRNA in the presence of chemical substance/The level of expressed mRNA in the absence of chemical substance (yeast gene YDR259C): 1.0
The level of expressed mRNA in the presence of chemical substance/The level of expressed mRNA in the absence of chemical substance (yeast gene YDR315C): 0.9
The level of expressed mRNA in the presence of chemical substance/The level of expressed mRNA in the absence of chemical substance (yeast gene YDR358W): 1.4
The level of expressed mRNA in the presence of chemical substance/The level of expressed mRNA in the absence of chemical substance (yeast gene YDR388W): 0.7
The level of expressed mRNA in the presence of chemical substance/The level of expressed mRNA in the absence of chemical substance (yeast gene YDR432W): 1.6
The level of expressed mRNA in the presence of chemical substance/The level of expressed mRNA in the absence of chemical substance (yeast gene YDR481C): 1.0
The level of expressed mRNA in the presence of chemical substance/The level of expressed mRNA in the absence of chemical substance (yeast gene YDR510W): 0.7
The level of expressed mRNA in the presence of chemical substance/The level of expressed mRNA in the absence of chemical substance (yeast gene YEL042W): 0.7
The level of expressed mRNA in the presence of chemical substance/The level of expressed mRNA in the absence of chemical substance (yeast gene YEL066W): 0.8
The level of expressed mRNA in the presence of chemical substance/The level of expressed mRNA in the absence of chemical substance (yeast gene YER039C): 1.5
The level of expressed mRNA in the presence of chemical substance/The level of expressed mRNA in the absence of chemical substance (yeast gene YER107C): 1.3
The level of expressed mRNA in the presence of chemical substance/The level of expressed mRNA in the absence of chemical substance (yeast gene YER130C): 1.7
The level of expressed mRNA in the presence of chemical substance/The level of expressed mRNA in the absence of chemical substance (yeast gene YFL028C): 1.7
The level of expressed mRNA in the presence of chemical substance/The level of expressed mRNA in the absence of chemical substance (yeast gene YFL043C): 1.2
The level of expressed mRNA in the presence of chemical substance/The level of expressed mRNA in the absence of chemical substance (yeast gene YGL158W): 1.0
The level of expressed mRNA in the presence of chemical substance/The level of expressed mRNA in the absence of chemical substance (yeast gene YGL229C): 1.0
The level of expressed mRNA in the presence of chemical substance/The level of expressed mRNA in the absence of chemical substance (yeast gene YGR136W): 1.2
The level of expressed mRNA in the presence of chemical substance/The level of expressed mRNA in the absence of chemical substance (yeast gene YGR189C): 0.7
The level of expressed mRNA in the presence of chemical substance/The level of expressed mRNA in the absence of chemical substance (yeast gene YGR213C): 1.2
The level of expressed mRNA in the presence of chemical substance/The level of expressed mRNA in the absence of chemical substance (yeast gene YGR257C): 1.3
The level of expressed mRNA in the presence of chemical substance/The level of expressed mRNA in the absence of chemical substance (yeast gene YHR004C): 1.5
The level of expressed mRNA in the presence of chemical substance/The level of expressed mRNA in the absence of chemical substance (yeast gene YHR071W): 1.5
The level of expressed mRNA in the presence of chemical substance/The level of expressed mRNA in the absence of chemical substance (yeast gene YHR139C): 1.3
The level of expressed mRNA in the presence of chemical substance/The level of expressed mRNA in the absence of chemical substance (yeast gene YHR142W): 1.3
The level of expressed mRNA in the presence of chemical substance/The level of expressed mRNA in the absence of chemical substance (yeast gene YIL123W): 0.6
The level of expressed mRNA in the presence of chemical substance/The level of expressed mRNA in the absence of chemical substance (yeast gene YIL140W): 0.8
The level of expressed mRNA in the presence of chemical substance/The level of expressed mRNA in the absence of chemical substance (yeast gene YJL073W): 1.2
The level of expressed mRNA in the presence of chemical substance/The level of expressed mRNA in the absence of chemical substance (yeast gene YJL089W): 1.1
The level of expressed mRNA in the presence of chemical substance/The level of expressed mRNA in the absence of chemical substance (yeast gene YJL116C): 1.3
The level of expressed mRNA in the presence of chemical substance/The level of expressed mRNA in the absence of chemical substance (yeast gene YJR004C): 1.1
The level of expressed mRNA in the presence of chemical substance/The level of expressed mRNA in the absence of chemical substance (yeast gene YJR086W): 1.3
The level of expressed mRNA in the presence of chemical substance/The level of expressed mRNA in the absence of chemical substance (yeast gene YKL008C): 0.9
